In article PMC9412300, “In Vitro Evaluation and Mitigation of Niclosamide’s Liabilities as a COVID-19 Treatment” (Vaccines, 2022):
Where “and” joins values, the source holds several entries; their conditions need not be identical. Identical values can stand only once.

System: SARS-CoV-2 WA1 variant
Assay: microbe, parasite or virus in culture
Type: cell-based
Conditions: not given

Row | SMILES | H1437 (WA1) IC50 | exacerbation of infection in H1437 (inverted concentration-response curves at high concentrations)
1 | COC(=O)c1ccc(NC(=O)c2cc(Cl)ccc2O)c(Cl)c1 [Compound 7] | Inverted | exacerbate infection
2 | O=C(O)c1ccc(NC(=O)c2cc(Cl)ccc2O)c(Cl)c1 [Compound 8] | Inverted | exacerbate infection
3 | O=C(Nc1ccc([N+](=O)[O-])cc1Cl)c1cccc(Cl)c1 [Compound 9] | complete loss of activity | 
4 | COc1ccc(NC(=O)c2cc(Cl)ccc2O)c(Cl)c1 [Compound 10] | Inverted | exacerbate infection
5 | CC(C)(C)c1ccc(O)c(C(=O)Nc2ccc(C(=O)O)cc2Cl)c1 [Compound 14] | Inverted | 
6 | CC(C)(C)c1ccc(O)c(C(=O)Nc2ccc(C(=O)O)cc2F)c1 [Compound 15] | Inverted | 
7 | Cc1cc(C(=O)O)ccc1NC(=O)c1cc(C(C)(C)C)ccc1O [Compound 16] | Inverted | 
8 | CC(C)(C)c1cc(C(=O)Nc2ccc(NS(C)(=O)=O)cc2Cl)c(O)c(C(C)(C)C)c1 [Compound 18] | Inverted | 
9 | CC(C)(C)c1cc(C(=O)Nc2ccc(N)cc2Cl)c(O)c(C(C)(C)C)c1 [Compound 19] | Inverted | 
10 | O=C(O)c1ccc(NC(=O)c2cc(C3CCCCC3)ccc2O)c(Cl)c1 [Compound 22] | Inverted | exacerbate infection
11 | COC(=O)c1ccc(NC(=O)c2cccc(C(C)(C)C)c2O)c(Cl)c1 [Compound 25] | Inverted | exacerbate infection
12 | COc1ccc(O)c(C(=O)Nc2ccc(C(=O)O)cc2C)c1 [Compound 28] | Inverted | 
13 | CC(C)(C)c1cccc(C(=O)Nc2ccc(C(=O)O)cc2Cl)c1O [Compound 30] | Inverted | 
14 | CC(C)(C)c1cccc(C(=O)Nc2ccc(NS(C)(=O)=O)cc2Cl)c1O [Compound 33] | Inverted | exacerbate infection

Same assay, conditions: Severe acute respiratory syndrome coronavirus 2, NCI-H1437, 48 h

Row | SMILES | IC50 [µM]
15 | O=C(Nc1ccc([N+](=O)[O-])cc1Cl)c1ccccc1O [Compound 2] | 4.92
16 | O=C(Nc1ccc([N+](=O)[O-])cc1Cl)c1cccc(Cl)c1 [Compound 9] | > 20
17 | CC(C)(C)c1ccc(O)c(C(=O)Nc2ccc([N+](=O)[O-])cc2Cl)c1 [Compound 11] | 3.1
18 | N#Cc1ccc(NC(=O)c2cc(Cl)ccc2O)c(Cl)c1 [Compound 24] | 1.07
19 | O=C(Nc1ccc([N+](=O)[O-])cc1Cl)c1cc(Cl)ccc1O [Niclosamide] | 16.8

Same assay, conditions: read-out: H1437 (WA1) IC50

Row | SMILES | IC50 [µM]
20 | Cc1ccc(O)c(C(=O)Nc2ccc([N+](=O)[O-])cc2Cl)c1 [Compound 3] | 2.6
21 | COc1ccc(O)c(C(=O)Nc2ccc([N+](=O)[O-])cc2Cl)c1 [Compound 4] | 10.9
22 | O=C(Nc1ccccc1Cl)c1cc(Cl)ccc1O [Compound 5] | > 20
23 | Cc1ccc(NC(=O)c2cc(Cl)ccc2O)c(Cl)c1 [Compound 6] | > 20
24 | COc1ccc(O)c(C(=O)Nc2ccc([N+](=O)[O-])cc2Cl)c1 [Compound 12] | 16.9
25 | COC(=O)c1ccc(NC(=O)c2cc(C(C)(C)C)ccc2O)c(Cl)c1 [Compound 13] | > 20
26 | Cc1cc(NC(=O)c2cc(C(C)(C)C)cc(C(C)(C)C)c2O)ccc1C(=O)O [Compound 20] | > 20
27 | COC(=O)c1ccc(NC(=O)c2cc(C3CCCCC3)ccc2O)c(Cl)c1 [Compound 21] | > 20
28 | COC(=O)c1ccc(NC(=O)c2cc(C(F)(F)F)ccc2O)c(C)c1 [Compound 23] | > 20
29 | CC(C)(C)c1cc(C(=O)Nc2ccc(C(=O)O)cc2Cl)c(O)c(C(C)(C)C)c1 [Compound 26] | > 20
30 | CC(C)(C)c1cccc(C(=O)Nc2ccc([N+](=O)[O-])cc2Cl)c1O [Compound 31] | > 20
31 | CC(C)(C)c1cccc(C(=O)Nc2ccc(N)cc2Cl)c1O [Compound 32] | > 20
32 | O=C(Nc1ccc(Br)cc1Cl)c1cc(Cl)ccc1O [Compound 34] | 3.49

System: SARS-CoV-2 B.1.1.7 variant
Assay: not given
Type: cell-based
Conditions: VeroE6, B.1.1.7, 156, 313, 625 nM niclosamide vs viral control

Row | SMILES | maximum size of syncytia (max area of viral objects) | number of individually infected cells within a well (viral objects per well)
33 | O=C(Nc1ccc([N+](=O)[O-])cc1Cl)c1cc(Cl)ccc1O [Niclosamide] | decreased | reduced

Same assay, conditions: VeroE6, B.1.1.7, escalating concentrations 156, 313, 625 nM

Row | SMILES | N protein intensity of remaining viral objects
34 | O=C(Nc1ccc([N+](=O)[O-])cc1Cl)c1cc(Cl)ccc1O [Niclosamide] | increased

System: SARS-CoV-2 B.1.1.7 variant
Assay: microbe, parasite or virus in culture
Type: cell-based
Conditions: not given

Row | SMILES | selectivity index (CC50/IC50), H1437
35 | O=C(Nc1ccc([N+](=O)[O-])cc1Cl)c1cc(Cl)ccc1O [Niclosamide] | 1.67 and < 2

Same assay, conditions: Severe acute respiratory syndrome coronavirus 2, NCI-H1437

Row | SMILES | IC50 [µM]
36 | O=C(Nc1ccc([N+](=O)[O-])cc1Cl)c1cc(Cl)ccc1O [Niclosamide] | 0.261

System: not listed separately
Assay: Cell viability in VeroE6, shortened 24 h infection assay
Conditions: African green monkey, VeroE6 cells infected with SARS-CoV-2, CC50 in shortened assay, VeroE6, 1 h preincubation, 24 h infection, top 10 μM

Row | SMILES | CC50 at 25 h [µM]
37 | O=C(Nc1ccc([N+](=O)[O-])cc1Cl)c1cc(Cl)ccc1O [Niclosamide] | > 10

System: SARS-CoV-2 B.1.1.7 variant
Assay: microbe, parasite or virus in culture
Type: cell-based
Conditions: not given
Remark: another data set of the same source

Row | SMILES | Vero-E6 (B.1.1.7) IC50 | selectivity index (CC50/IC50), VeroE6
38 | O=C(Nc1ccc([N+](=O)[O-])cc1Cl)c1cccc(Cl)c1 [Compound 9] | complete loss of activity | 
39 | O=C(Nc1ccc([N+](=O)[O-])cc1Cl)c1cc(Cl)ccc1O [Niclosamide] |  | 1.86 and < 2

Same assay, conditions: Severe acute respiratory syndrome coronavirus 2, Vero C1008, 48 h; read-out: Vero-E6 (B.1.1.7) IC50

Row | SMILES | IC50 [µM]
40 | O=C(Nc1ccc([N+](=O)[O-])cc1Cl)c1ccccc1O [Compound 2] | 0.296
41 | COC(=O)c1ccc(NC(=O)c2cc(Cl)ccc2O)c(Cl)c1 [Compound 7] | 0.334
42 | O=C(Nc1ccc([N+](=O)[O-])cc1Cl)c1cccc(Cl)c1 [Compound 9] | > 20
43 | CC(C)(C)c1ccc(O)c(C(=O)Nc2ccc([N+](=O)[O-])cc2Cl)c1 [Compound 11] | 0.423
44 | N#Cc1ccc(NC(=O)c2cc(Cl)ccc2O)c(Cl)c1 [Compound 24] | 0.348
45 | O=C(Nc1ccc([N+](=O)[O-])cc1Cl)c1cc(Cl)ccc1O [Niclosamide] | 0.564

Same assay, conditions: read-out: Vero-E6 (B.1.1.7) IC50

Row | SMILES | IC50 [µM]
46 | Cc1ccc(O)c(C(=O)Nc2ccc([N+](=O)[O-])cc2Cl)c1 [Compound 3] | 1.25
47 | COc1ccc(O)c(C(=O)Nc2ccc([N+](=O)[O-])cc2Cl)c1 [Compound 4] | 1.77
48 | O=C(Nc1ccccc1Cl)c1cc(Cl)ccc1O [Compound 5] | 0.89
49 | Cc1ccc(NC(=O)c2cc(Cl)ccc2O)c(Cl)c1 [Compound 6] | 0.76
50 | O=C(O)c1ccc(NC(=O)c2cc(Cl)ccc2O)c(Cl)c1 [Compound 8] | > 20
51 | COc1ccc(NC(=O)c2cc(Cl)ccc2O)c(Cl)c1 [Compound 10] | 4.25
52 | COc1ccc(O)c(C(=O)Nc2ccc([N+](=O)[O-])cc2Cl)c1 [Compound 12] | 1.5
53 | COC(=O)c1ccc(NC(=O)c2cc(C(C)(C)C)ccc2O)c(Cl)c1 [Compound 13] | > 20
54 | CC(C)(C)c1ccc(O)c(C(=O)Nc2ccc(C(=O)O)cc2Cl)c1 [Compound 14] | > 20
55 | CC(C)(C)c1ccc(O)c(C(=O)Nc2ccc(C(=O)O)cc2F)c1 [Compound 15] | > 20
56 | Cc1cc(C(=O)O)ccc1NC(=O)c1cc(C(C)(C)C)ccc1O [Compound 16] | > 20
57 | CC(C)(C)c1cc(C(=O)Nc2ccc(NS(C)(=O)=O)cc2Cl)c(O)c(C(C)(C)C)c1 [Compound 18] | > 20
58 | CC(C)(C)c1cc(C(=O)Nc2ccc(N)cc2Cl)c(O)c(C(C)(C)C)c1 [Compound 19] | > 20
59 | Cc1cc(NC(=O)c2cc(C(C)(C)C)cc(C(C)(C)C)c2O)ccc1C(=O)O [Compound 20] | > 20
60 | COC(=O)c1ccc(NC(=O)c2cc(C3CCCCC3)ccc2O)c(Cl)c1 [Compound 21] | 9.91
61 | O=C(O)c1ccc(NC(=O)c2cc(C3CCCCC3)ccc2O)c(Cl)c1 [Compound 22] | 4.51
62 | COC(=O)c1ccc(NC(=O)c2cc(C(F)(F)F)ccc2O)c(C)c1 [Compound 23] | > 20
63 | COC(=O)c1ccc(NC(=O)c2cccc(C(C)(C)C)c2O)c(Cl)c1 [Compound 25] | > 20
64 | CC(C)(C)c1cc(C(=O)Nc2ccc(C(=O)O)cc2Cl)c(O)c(C(C)(C)C)c1 [Compound 26] | > 20
65 | Cc1cc(NC(=O)c2cc(C(C)(C)C)cc(C(C)(C)C)c2O)ccc1C(=O)O [Compound 27] | 16.5
66 | COc1ccc(O)c(C(=O)Nc2ccc(C(=O)O)cc2C)c1 [Compound 28] | > 20
67 | CC(C)(C)c1cccc(C(=O)Nc2ccc(C(=O)O)cc2Cl)c1O [Compound 30] | > 20
68 | CC(C)(C)c1cccc(C(=O)Nc2ccc([N+](=O)[O-])cc2Cl)c1O [Compound 31] | > 20
69 | CC(C)(C)c1cccc(C(=O)Nc2ccc(N)cc2Cl)c1O [Compound 32] | > 20
70 | CC(C)(C)c1cccc(C(=O)Nc2ccc(NS(C)(=O)=O)cc2Cl)c1O [Compound 33] | 2.88
71 | O=C(Nc1ccc(Br)cc1Cl)c1cc(Cl)ccc1O [Compound 34] | 0.76
